Assay results: article PMC6331810, “Novel Coumarin-Containing Aminophosphonatesas Antitumor Agent: Synthesis, Cytotoxicity, DNA-Binding and Apoptosis Evaluation” (Molecules, 2015)

Tests used:
[1] = test system: human KB (human nasopharyngeal carcinoma cells); test: MTT cytotoxicity assay, human KB; assay type: cell-based; conditions: 48 h, no irradiation, mean ± SD of three experiments
Method: (§1) Cell Lines. The following in vitro human cancer cell lines were used: HCT-116 (Human colorectal cells), human KB (human nasopharyngeal carcinoma cells), MGC-803 (human lung adenocarcinoma cell line), HUVEC (Human Umbilical Vein Endothelial Cells). The cell lines (HCT-116, KB, MGC-803 and HUVEC) were purchased from the Cell Resource Center of Shanghai Institutes for Biological Sciences, the Academy of Sciences of China.
(§2) Cell Culture. HCT-116, human KB, MGC-803 and HUVEC cells were cultured in Dulbecco Modified Eagle Medium (DMEM; HyClone, Los Angeles, CA, USA), containing 4.0 mM L-Glutamine and 4500 mg/L Glucose, supplemented with 10% (v/v) foetalbovine serum (FBS; HyClone). The cell culturemedia was supplemented with penicillin/streptomycin at 100 Units/mL as adherent monolayers. Cell cultures were kept in a humidified incubator with 5% CO2 at 37 °C. Stock solutions were prepared in dimethyl sulfoxide (DMSO) and further dilutions were made with fresh culture medium. The concentration of DMSO in the final culture medium was 1%, which had no effect on the cell viability.
(§3) MTT Assay. Chemosensitivity was assessed using 3-(4,5-dimethylthiazol-2-yl)-2,5-diphenyl tetrazolium bromide (MTT) assay. Briefly, exponentially growing HCT-116 (3000–4000 cells/well), human KB (2000–3000 cells/well) and MGC 803 (2000–3000 cells/well) were seeded into 96-well plates and treated with indicated concentrations of samples for 48 h, and then […] of MTT (10 mg/mL) was added. After incubation for 4 h at 37 °C, the purple formazan crystals (i.e., a reduced form of MTT) generated from viable cells were dissolved by adding 100 μL DMSO in each well. The plates were swirled gently for 10 min to dissolve the precipitate, and quantified by measuring the optical density (OD) of the plates at a wavelength of 490 nm on plate reader (TECAN infinite M1000). Each concentration was repeated in three wells and the same experimental conditions were provided for all compounds and MTT analysis was repeated three times for each cell line.

[2] = test system: HUVEC (Human Umbilical Vein Endothelial Cells); test: MTT cytotoxicity assay, HUVEC normal cells; assay type: cell-based; conditions: no irradiation, mean ± SD of three experiments
Method: as §1, §2, §3

[3] = test system: HCT-116 (Human colorectal cells); test: MTT cytotoxicity assay, HCT-116; assay type: cell-based; conditions: MTT, 48 h, no irradiation, mean ± SD of three experiments
Method: as §1, §2, §3

[4] = test system: MGC-803 (human lung adenocarcinoma cell line); test: MTT cytotoxicity assay, MGC-803; assay type: cell-based; conditions: 48 h, no irradiation, mean ± SD of three experiments
Method: as §1, §2, §3

[5] = test system: CT-DNA; test: Spectrofluorimetric titration with CT-DNA (Stern-Volmer and binding constants); design: species or system calf; conditions: from F0/F-1 vs [DNA]; Tris-HCl buffer pH 7.2
Method: The DNA binding properties of compounds 8a–8j were evaluated based on their affinity or interaction with CT-DNA, measured with fluorescence spectrometric titration.
The calibration curve for determination of DNA was constructed by adding different proportion of DNA to a 2.0 × 10^−3 M compound 8j solution (pH = 7.2 Tris-HCl buffer). […] [Q] is the concentration of quencher. KSV is the Stern-Volmer constant and KQ is the bimolecular quenching rate constant. τ0 is the lifetime of the fluorophore in the absence of quencher and for most biomolecules τ0 is about 10^−8 s. The Stern-Volmer constant, KSV, for compound 8j has been determined from the plot of F0/F-1 vs. [DNA] (see Figure 2) and found to be 5.11 × 10^2 M^−1.
When small molecules binding independently to a set of equivalent sites on a macromolecule, the equilibrium between free and bound molecules is given by the equation [28]: (2) lg (F0/F-1) = lgKb + nlg[Q] where Kb and n are the binding constant and the number of binding sites, respectively, which could be got from the curve of lg(F0/F-1) vs. lg[Q]. The plot of lg(F0/F-1) vs. lg[DNA] has been shown in Figure 3 for compound 8j and indicates a simple binding process for the compound.
All fluorescence experiments were carried out on a Perkin-Elmer LS50B luminescence spectrometer. Fluorescence spectra were measured at rt using quartz cells of 1cm path. To the solutions of the drugs (2.0 × 10^−3 M) in 2.5 mL Tris-HCl buffer (pH = 7.2) were added aliquots of CT-DNA (2.0 × 10^−3 M) solution containing drugs (2.0 × 10^−3 M) in 2.5 mL Tris-HCl buffer (pH = 7.2). This operation ensured that the concentration of CT-DNA increased gradually from 0 to 360 µM, while the concentrations of drugs were kept constant. The mixing was achieved by stirring for 10min. Then, the corresponding fluorescence spectra were measured (ex 325 nm, ex/em 1.5 nm/1.5 nm). Binding constants were derived from the modified.

[6] = test system: CT-DNA; test: Circular dichroism spectra of CT-DNA; assay type: binding, calf; conditions: [compound]/[DNA] 1:10; 1.5 × 10^−4 M DNA, 1.5 × 10^−5 M compound
Method: CD absorption spectra of DNA were measured in TBS at a 100 nm/min scan rate in the wavelength range from 200 to 500 nm, with 1.5 × 10^−4 M DNA in the absence and presence of each compound of 1.5 × 10^−5 M, respectively. The CD signal of TBS was taken as the background and subtracted from the spectra. All the spectroscopic experiments were performed at 25 °C.

[7] = test system: GelRed/CT-DNA; test: GelRed-DNA competitive binding (fluorescence quenching); design: species or system calf; conditions: I0/I vs [Q]; [GelRed]/[DNA] = 1:10, ex 350 nm, em 590 nm
[8] = test system: HCT-116 cells; test: Apoptosis and cell cycle analysis by flow cytometry (PI staining); assay type: cell-based, human; conditions: HCT-116, 48 h at IC50 concentration; untreated cells 35.32%
Method: Compared to the control (untreated cells), changes in the cell cycle distribution of treated HCT-116 cells were evident.
Figure 6 Inhibition of cell cycle progress in HCT-116 cells treated with compounds 8d, 8f, 8c and 8j for 48 h. Cells were fixed with ethanol and stained with PI. Cell cycle distribution was analyzed by flow cytometry. First peak represents sub-G1 peak, which was taken as the fraction of the apoptotic cell population. TEXT PRINTED IN THE PICTURE: 8d: Diploid: 100.00%; Dip G1: 87.24 % at 74.84; Dip G2: 7.42 % at 147.44; Dip S: 5.34 % | 8f: Diploid: 100.00%; Dip G1: 74.25 % at 73.13; Dip G2: 10.86 % at 144.07; Dip S: 14.89 % | 8c: Diploid: 100.00%; Dip G1: 82.72 % at 72.85; Dip G2: 6.28 % at 143.51; Dip S: 11.00% | 8j: Diploid: 100.00%; Dip G1: 15.12 % at 45.10; Dip G2: 52.47 % at 88.84; Dip S: 32.40%; Apoptosis: 4.01 % Mean: 33.84 | Control (−): Diploid: 100.00%; Dip G1: 35.32 % at 52.60; Dip G2: 19.20 % at 103.62; Dip S: 45.84% DOUBTS OF THE COPYIST ABOUT THIS PICTURE: Print is small throughout, so 3, 5, 6, 8 and 9 cannot be told apart with certainty in the values below; best readings are given. / 8d, Dip G1: 87.24 % at 74.84, the 8s uncertain / 8d, Dip S: 5.34, the 5 and 3 uncertain / 8f, Dip G2: 10.86 % at 144.07, the 8 and 6 uncertain / 8f, Dip S: 14.89, the 8 and 9 uncertain / 8c, Dip G1: 82.72 % at 72.85, the 8s and 5 uncertain / 8c, Dip G2: 6.28 % at 143.51, the 6, 8, 3 and 5 uncertain / 8j, Dip G2: 52.47 % at 88.84, the 5 and 8s uncertain / 8j, Apoptosis: 4.01 % Mean: 33.84, the 3s and 8 uncertain / Control (−), Dip G1: 35.32 % at 52.60, the 3s, 5s and 6 uncertain / Control (−), Dip G2: 19.20 % at 103.62, the 9, 3 and 6 uncertain / Control (−), Dip S: 45.84, the 5 and 8 uncertain / Control (−) is an untreated control, not a compound; it is included because results are printed with it. / G2/G1: 1.97 and %CV, printed in every plot, are left out as fit parameter and statistic.
Apoptosis was quantified by assessing the fraction of cells with sub-G1 DNA content by flow cytometry. The cells lines were treated with indicated concentrations of compounds […]. After incubated for 48 h, cells were washed twice with ice-cold PBS, fixed and permeabilized with ice-cold 70% ethanol at −20 °C overnight. The cells were treated with 100 μg/mL RNase A at 37 °C for 30 min after washed with ice-cold PBS, and finally stained with 1 mg/mL propidium iodide (PI) in the dark at 4 °C for 30 min. Analysis was performed with the system software (Cell Quest; BD Biosciences, Franklin Lakes, NJ, USA).

[9] = Homo sapiens, light or radiation study
[10] = Homo sapiens, HUVEC, light or radiation study
[11] = Homo sapiens, HCT-116, light or radiation study
[12] = Homo sapiens, MGC-803, light or radiation study

Structure (SMILES) | IC50 [1] [µM] | IC50 [2] [µM] | IC50 [3] [µM] | IC50 [4] [µM] | KSV (Stern-Volmer constant) [5] [M⁻¹] | Negative AI decrease (CD absorption peak of CT-DNA at 247 nm) [6] [%] | Positive AI decrease (CD absorption peak of CT-DNA at 281 nm) [6] [%] | Kq (quenching constant of GelRed bound to DNA) [7] [M⁻¹] | IC50 [1, 9] [µM] | IC50 [2, 10] [µM] | IC50 [3, 11] [µM] | IC50 [4, 12] [µM] | G1-phase population [8] [%]
CCOP(=O)(OCC)C(NC(=O)CCOc1ccc2c(C)cc(=O)oc2c1)c1ccccc1Br (stereo not shown) [Compound 8e, Diethyl(3-(4-methyl-2-oxo-2H-chromen-7-yloxy)propanamido)(2-bromophenyl)methylphospho-nate] | 9.55 ± 0.09 | > 100 | 90.5 ± 1.09 | 67.5 ± 3.26 | 475 |  |  |  |  |  |  |  | 
CCOP(=O)(OCC)C(NC(=O)CCOc1ccc2c(C)cc(=O)oc2c1)c1ccccc1F (stereo not shown) [Compound 8b, Diethyl(3-(4-methyl-2-oxo-2H-chromen-7-yloxy)propanamido)(2-fluorophenyl)methylphospho-nate] | > 50 | > 100 | > 100 | > 100 | 299 |  |  |  |  |  |  |  | 
CCOP(=O)(OCC)C(NC(=O)CCOc1ccc2c(C)cc(=O)oc2c1)c1ccccc1OC (stereo not shown) [Compound 8h, Diethyl(3-(4-methyl-2-oxo-2H-chromen-7-yloxy)propanamido)(2-methoxyphenyl)methylphos-phonate] |  | > 100 | 23.7 ± 5.89 | 36.9 ± 1.96 | 357 | 28.5 | 34.5 | 2410 |  |  |  |  | 
CCOP(=O)(OCC)C(NC(=O)CCOc1ccc2c(C)cc(=O)oc2c1)c1ccc2ccccc2c1 (stereo not shown) [Compound 8i, Diethyl(3-(4-methyl-2-oxo-2H-chromen-7-yloxy)propanamido)(naphthalen-2-yl)methylphosph-onate] |  | > 100 | 38.9 ± 0.04 | 41.5 ± 2.86 | 18100 |  |  |  |  |  |  |  | 
O=c1[nH]cc(F)c(=O)[nH]1 [Compound 5-Fu, 5-fluoro-2,4(1H,3H)pyrimidinedione, reference compound] |  |  |  |  |  |  |  |  | 1.23 ± 1.09 | 56 ± 3.21 | 10.1 ± 2.2 | 15.3 ± 1.96 | 
Cc1cc(=O)oc2cc(O)ccc12 [Compound 2, 7-Hydroxy-4-methyl-2H-chromen-2-one, reference compound] |  |  |  |  | 442 |  |  |  | > 50 | > 100 | > 100 | > 100 | 
CCOP(=O)(OCC)C(NC(=O)CCOc1ccc2c(C)cc(=O)oc2c1)c1ccccc1 (stereo not shown) [Compound 8a, Diethyl(3-(4-methyl-2-oxo-2H-chromen-7-yloxy)propanamido)(phenyl)methylphosphonate] | > 50 | > 100 | > 100 | > 100 | 340 |  |  |  |  |  |  |  | 
CCOP(=O)(OCC)C(NC(=O)CCOc1ccc2c(C)cc(=O)oc2c1)c1ccc(Br)cc1 (stereo not shown) [Compound 8g, Diethyl(3-(4-methyl-2-oxo-2H-chromen-7-yloxy)propanamido)(4-bromophenyl)methylphosph-onate] | 7.27 ± 6.18 | > 100 | 88.5 ± 4.62 | 85.6 ± 2.83 | 410 |  |  |  |  |  |  |  | 
CCOP(=O)(OCC)C(NC(=O)CCOc1ccc2c(C)cc(=O)oc2c1)c1ccccc1Cl (stereo not shown) [Compound 8c, Diethyl(3-(4-methyl-2-oxo-2H-chromen-7-yloxy)propanamido)(2-chlorophenyl)methylphospho-nate] | 33.4 ± 1.2 | > 100 | 88.7 ± 1.69 | 79.4 ± 3.82 | 481 |  |  |  |  |  |  |  | 82.72
CCOP(=O)(OCC)C(NC(=O)CCOc1ccc2c(C)cc(=O)oc2c1)c1ccc(Cl)cc1 (stereo not shown) [Compound 8d, Diethyl(3-(4-methyl-2-oxo-2H-chromen-7-yloxy)propanamido)(4-chlorophenyl)methylphospho-nate] | 7.8 ± 5.36 | > 100 | 86.2 ± 1.86 | 76.9 ± 3.89 | 429 |  |  |  |  |  |  |  | 87.24
